The compounds below were run against T1, recombinant human 5-HT5A receptor (Homo sapiens, UniProt P47898) (assay: [3H]LSD radioligand binding assay, recombinant human 5-HT5A receptor in HEK-EBNA cell membranes). Settings: [3H]LSD approximately 1 nM; membranes from HEK-EBNA cells; Ki from IC50 by the Cheng-Prussoff equation.
T1 construct: expressed in transfected cells; host or cells: HEK-EBNA (Human Embryonic Kidney-EBNA) cells, transient cDNA expression, membranes
Protocol: A [^3H] LSD radioligand binding assay was used to determine the affinity of the compounds for the recombinant human 5-HT5A receptor in membranes from transiently (cDNA) expressed 5-HT5A receptors in Human Embryonic Kidney-EBNA (HEK-EBNA) cells. Assay buffer consisted of Tris (50 mM) buffer containing 1 mM EGTA, 10 mM MgCl2 (pH 7.4) and 10 μM pargyline. The binding assay was carried out in 96-well-plates in the presence of [^3H]LSD (approximately 1 nM), approximately 2 μg/well of membrane protein, and 0.5 mg of Ysi-poly-1-lysine SPA beads in a final volume of 200 μl of buffer. Non-specific binding was defined using methiothepin 2 μM. Compounds were tested at 10 concentrations. All assays were conducted in duplicate and repeated at least two times. Assay plates were incubated for 120 min at room temperature before centrifugation. Bound ligand was determined using a Packard Topcount scintillation counter. IC50 values were calculated using a non-linear curve fitting program, and Ki values were calculated using the Cheng-Prussoff equation.

T1 sequence (P47898 whole entry): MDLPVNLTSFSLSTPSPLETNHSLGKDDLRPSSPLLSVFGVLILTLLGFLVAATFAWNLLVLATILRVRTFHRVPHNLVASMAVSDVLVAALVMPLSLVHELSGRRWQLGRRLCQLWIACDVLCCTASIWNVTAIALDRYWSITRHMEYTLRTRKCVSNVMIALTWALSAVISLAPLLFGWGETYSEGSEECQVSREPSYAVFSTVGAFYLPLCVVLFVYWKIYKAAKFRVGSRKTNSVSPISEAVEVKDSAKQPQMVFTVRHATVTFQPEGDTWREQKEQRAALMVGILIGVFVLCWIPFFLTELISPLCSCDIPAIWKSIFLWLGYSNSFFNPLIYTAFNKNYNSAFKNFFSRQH

Q: With `CC1NC(N)=Nc2cccc(Cl)c21` (stereo not shown) [Example 1, 5-Chloro-4-methyl-3,4-dihydro-quinazolin-2-ylamine] as the compound, how does the Ki read?
A: 5.13 nM

Q: For `CNC1=Nc2cccc(Cl)c2C(C)N1` (stereo not shown) [Example 2, (5-Chloro-4-methyl-3,4-dihydro-quinazolin-2-yl)-methyl-amine], which Ki is on record?
A: 10.8 nM

Q: With `CC1NC(NC2CCC2)=Nc2cccc(Cl)c21` (stereo not shown) [Example 3, (5-Chloro-4-methyl-3,4-dihydro-quinazolin-2-yl)-cyclobutyl-amine] as the compound, how does the Ki read?
A: 15.5 nM

Q: With `CC1NC(NCC(F)F)=Nc2cccc(Cl)c21` (stereo not shown) [Example 5, (5-Chloro-4-methyl-3,4-dihydro-quinazolin-2-yl)-(2,2-difluoro-ethyl)-amine] as the compound, how does the Ki read?
A: 10.1 nM

Q: How did the Ki turn out when `CC1NC(N)=Nc2ccc(Cl)c(Cl)c21` (stereo not shown) [Example 8, 5,6-Dichloro-4-methyl-3,4-dihydro-quinazolin-2-ylamine] was run?
A: 2 nM

Q: How did the Ki turn out when `CNC1=Nc2ccc(Cl)c(Cl)c2C(C)N1` (stereo not shown) [Example 9, (5,6-Dichloro-4-methyl-3,4-dihydro-quinazolin-2-yl)-methyl-amine] was run?
A: 6.34 nM

Q: For `CC1NC(NCC(F)F)=Nc2ccc(Cl)c(Cl)c21` (stereo not shown) [Example 10, (5,6-Dichloro-4-methyl-3,4-dihydro-quinazolin-2-yl)-(2,2-difluoro-ethyl)-amine], which Ki is on record?
A: 5.67 nM

Q: `CC1NC(NC2CCC2)=Nc2ccc(Cl)c(Cl)c21` (stereo not shown) [Example 15, Cyclobutyl-(5,6-dichloro-4-methyl-3,4-dihydro-quinazolin-2-yl)-amine] was tested. Which Ki did it give?
A: 6.9 nM

Q: With `CC(=O)NCCNC1=Nc2ccc(Cl)c(Cl)c2C(C)N1` (stereo not shown) [Example 16, N-[2-(5,6-Dichloro-4-methyl-3,4-dihydro-quinazolin-2-ylamino)-ethyl]-acetamide] as the compound, how does the Ki read?
A: 8.87 nM

Q: `CCCCCNC1=Nc2ccc(Cl)c(Cl)c2C(C)N1` (stereo not shown) [Example 18, (5,6-Dichloro-4-methyl-3,4-dihydro-quinazolin-2-yl)-pentyl-amine] was tested. Which Ki did it give?
A: 13.9 nM

Q: For `COCCCNC1=Nc2ccc(Cl)c(Cl)c2C(C)N1` (stereo not shown) [Example 19, (5,6-Dichloro-4-methyl-3,4-dihydro-quinazolin-2-yl)-(3-methoxy-propyl)-amine], which Ki is on record?
A: 6.9 nM

Q: How did the Ki turn out when `CC1NC(NCC2COCCO2)=Nc2ccc(Cl)c(Cl)c21` (stereo not shown) [Example 21, (5,6-Dichloro-4-methyl-3,4-dihydro-quinazolin-2-yl)-[1,4]dioxan-2-ylmethyl-amine] was run?
A: 17.8 nM

Q: Which Ki does the source give for `CC1NC(N)=Nc2c(Cl)ccc(Cl)c21` (stereo not shown) [Example 23, 5,8-Dichloro-4-methyl-3,4-dihydro-quinazolin-2-ylamine] here?
A: 5.85 nM
